Each compound was assayed against human Cat S (Homo sapiens (Human), UniProt P25774) (assay: Cathepsin enzyme inhibition assay (fluorogenic peptide substrate cleavage)). Details: human Cathepsin S 1 nM, substrate Z-Val-Val-Arg-AMC 20 μM, pH 6.5; read-out: Ic50 CatS: human.
Format: biochemical
Description: Cathepsin Enzyme Inhibition Assay
Enzyme activity is measured by observing the increase in fluorescence intensity caused by cleavage of a peptide substrate containing a fluorophore whose emission is quenched in the intact peptide. • Assay buffer: 100 mM potassium phosphate pH 6.5, EDTA-Na 5 mM, Triton X-100 0.001%, DTT 5 mM. • Enzymes (all at 1 nM): human and mouse Cathepsin S, Cat K, Cat B, Cat L. • Substrate (20 μM): Z-Val-Val-Arg-AMC, except for Cat K which uses Z-Leu-Arg-AMC (both from Bachem). • Z=Benzyloxycarbonyl. • AMC=7-Amino-4-Methyl-Coumarin. • DTT=dithiothreitol. • Final volume: 100 μL. • Excitation 360 nm, Emission 465 nm.
Enzyme is added to the substance dilutions in 96-well microtitre plates and the reaction is started with substrate. Fluorescence emission is measured over 20 minutes, during which time a linear increase is observed in the absence of inhibitor. IC50 are calculated by standard methods.
Inhibition of human Cat S, mouse Cat S, human Cat K, human Cat B, human Cat L and mouse Cat L have been measured separately. The results obtained for human Cat S for representative compounds of the invention are expressed in the following table in μM.

Chain of human Cat S (P25774 115-331): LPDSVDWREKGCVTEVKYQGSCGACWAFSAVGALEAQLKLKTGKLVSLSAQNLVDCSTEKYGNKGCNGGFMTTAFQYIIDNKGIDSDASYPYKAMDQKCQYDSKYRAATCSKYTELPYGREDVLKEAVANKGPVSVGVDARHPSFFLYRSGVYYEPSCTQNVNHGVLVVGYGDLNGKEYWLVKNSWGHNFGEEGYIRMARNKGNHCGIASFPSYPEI

IC50 [nM]	Compound
2.5	CS(=O)(=O)N1CCN(C2(C(=O)N3C[C@H](S(=O)(=O)c4ccccc4Cl)C[C@H]3C(=O)NC3(C#N)CC3)CC2)CC1 [Example 32, (2S,4R)-4-(2-Chlorophenylsulfonyl)-N-(1-cyanocyclopropyl)-1-(1-(4-(methylsulfonyl)piperazin-1-yl)cyclopropanecarbonyl)pyrrolidine-2-carboxamide]
2.6	COC(=O)N1CCN(C2(C(=O)N3C[C@H](S(=O)(=O)c4ccccc4Cl)C[C@H]3C(=O)NC3(C#N)CC3)CC2)CC1 [Example 33, Methyl 4-(1-((2S,4R)-4-(2-chlorophenylsulfonyl)-2-(1-cyanocyclopropylcarbamoyl)pyrrolidine-1-carbonyl)cyclopropyl)piperazine-1-carboxylate]
1.4	N#CC1(NC(=O)[C@@H]2C[C@@H](S(=O)(=O)c3ccccc3Cl)CN2C(=O)C2(N3CCN(C=O)CC3)CC2)CC1 [Example 34, (2S,4R)-4-(2-Chlorophenylsulfonyl)-N-(1-cyanocyclopropyl)-1-(1-(4-formylpiperazin-1-yl)cyclopropanecarbonyl)pyrrolidine-2-carboxamide]
3.7	N#CC1(NC(=O)[C@@H]2C[C@@H](S(=O)(=O)c3ccccc3Cl)CN2C(=O)C2(N3CCN(C(=O)C(F)(F)F)CC3)CC2)CC1 [Example 35, (2S,4R)-4-(2-Chlorophenylsulfonyl)-N-(1-cyanocyclopropyl)-1-(1-(4-(2,2,2-trifluoroacetyl)piperazin-1-yl)cyclopropanecarbonyl)pyrrolidine-2-carboxamide]
6.2	CCN1CCN(C2(C(=O)N3C[C@H](S(=O)(=O)c4ccccc4Cl)C[C@H]3C(=O)NC3(C#N)CC3)CC2)CC1 [Example 36, (2S,4R)-4-(2-Chlorophenylsulfonyl)-N-(1-cyanocyclopropyl)-1-(1-(4-ethylpiperazin-1-yl)cyclopropanecarbonyl)pyrrolidine-2-carboxamide]
1.2	N#CC1(NC(=O)[C@@H]2C[C@@H](S(=O)(=O)c3ccccc3Cl)CN2C(=O)C2(N3CCC(c4ccccc4)CC3)CC2)CC1 [Example 37, (2S,4R)-4-(2-chlorophenylsulfonyl)-N-(1-cyanocyclopropyl)-1-(1-(4-phenylpiperidin-1-yl)cyclopropanecarbonyl)pyrrolidine-2-carboxamide]
0.5	CC1CCN(C2(C(=O)N3C[C@H](S(=O)(=O)c4ccccc4Cl)C[C@H]3C(=O)NC3(C#N)CC3)CC2)CC1 [Example 38, (2S,4R)-4-(2-chlorophenylsulfonyl)-N-(1-cyanocyclopropyl)-1-(1-(4-methylpiperidin-1-yl)cyclopropanecarbonyl)pyrrolidine-2-carboxamide]
0.8	N#CC1(NC(=O)[C@@H]2C[C@@H](S(=O)(=O)c3ccccc3Cl)CN2C(=O)C2(N3CCOCC3)CC2)CC1 [Example 39, (2S,4R)-4-(2-Chlorophenylsulfonyl)-N-(1-cyanocyclopropyl)-1-(1-morpholino-cyclopropanecarbonyl)pyrrolidine-2-carboxamide]
0.5	N#CC1(NC(=O)[C@@H]2C[C@@H](S(=O)(=O)c3ccccc3Cl)CN2C(=O)C2(N3CCCCCC3)CC2)CC1 [Example 40, (2S,4R)-1-(1-(Azepan-1-yl)cyclopropanecarbonyl)-4-(2-chlorophenylsulfonyl)-N-(1-cyanocyclopropyl)pyrrolidine-2-carboxamide]
0.9	CC1CCCCN1C1(C(=O)N2C[C@H](S(=O)(=O)c3ccccc3Cl)C[C@H]2C(=O)NC2(C#N)CC2)CC1 (stereo partly drawn) [Example 41, (2S,4R)-4-(2-Chlorophenylsulfonyl)-N-(1-cyanocyclopropyl)-1-(1-(2-methylpiperidin-1-yl)cyclopropanecarbonyl)pyrrolidine-2-carboxamide]
0.4	N#CC1(NC(=O)[C@@H]2C[C@@H](S(=O)(=O)c3ccc(F)cc3Cl)CN2C(=O)C2(N3CCCCC3)CC2)CC1 [Example 42, (2S,4R)-4-(2-Chloro-4-fluorophenylsulfonyl)-N-(1-cyanocyclopropyl)-1-(1-(piperidin-1-yl)cyclopropanecarbonyl)pyrrolidine-2-carboxamide]
